These results are taken from patent US20210198204A1, “PRODRUGS OF KALLIKREIN INHIBITORS” (BioCryst Pharmaceuticals, Inc., priority 2016, published 2021).

Structures are written as SMILES.

This data set is described as follows: Plasma pharmacokinetics of the parent compound after a single oral dose of prodrug. The format is in vivo. As to conditions: single oral dose 10 mg/kg, fasted male Sprague Dawley rats; plasma analyzed for the parent compound; study duration 8 h. A digest of the protocol: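 Three male Sprague Dawley rats, housed in metabolic cages and fasted about 15 hours, were weighed and received one oral gavage dose of 10 mg/kg as a solution in water or water/propylene glycol. Blood (approximately 500 μL) went into heparin tubes at set timepoints up to the study duration. Plasma was separated by centrifugation at 14,000 rpm for 3 min at 4° C, stored below −70° C, and assayed for the parent compound.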
`C=Cc1cc(C(=O)Nc2ccc(C(=N)NC(=O)OCCCCCC)cc2)c(-c2ccc(C(=O)NCC3CC3)nc2C(=O)OC(C)OC(=O)OC(C)CO)cc1OC` (stereo not shown) [Compound 100e, 1-((((1-hydroxypropan-2-yl)oxy)carbonyl)oxy)ethyl 6-((cyclopropylmethyl)carbamoyl)-3-(2-((4-(N-((hexyloxy)carbonyl)carbamimidoyl)phenyl)carbamoyl)-5-methoxy-4-vinylphenyl)picolinate]: the “AUC0-last hour (area under the curve)” value is listed as “B (B = 1,001-10,000 ng/mL)”. For `C=Cc1cc(C(=O)Nc2ccc(C(=N)NC(=O)OCCOC(=O)[C@@H](N)C(C)C)cc2)c(-c2ccc(C(=O)NCC3CC3)nc2C(=O)OC(C)OC(=O)C(C)C)cc1OC` (stereo partly drawn) [Compound 101e, 1-(isobutyryloxy)ethyl 3-(2-((4-(N-((2-(((S)-2-amino-3-methylbutanoyl)oxy)ethoxy)carbonyl)carbamimidoyl)phenyl)carbamoyl)-5-methoxy-4-vinylphenyl)-6-((cyclopropylmethyl)carbamoyl)picolinate], the “AUC0-last hour (area under the curve)” value is listed as “A (A = 0-1,000 ng/mL)”. The result for `C=Cc1cc(C(=O)Nc2ccc(C(=N)NC(=O)OCCCCCN)cc2)c(-c2ccc(C(=O)NCC3CC3)nc2C(=O)OC(C)OC(=O)C(C)C)cc1OC` (stereo not shown) [Compound 102d, 1-(isobutyryloxy)ethyl 3-(2-((4-(N-(((5-aminopentyl)oxy)carbonyl)carbamimidoyl)phenyl)carbamoyl)-5-methoxy-4-vinylphenyl)-6-((cyclopropylmethyl)carbamoyl)picolinate] reads “A (A = 0-1,000 ng/mL)”. To `C=Cc1cc(C(=O)Nc2ccc(C(=N)NC(=O)OC[C@@H]3CCC(=O)N3)cc2)c(-c2ccc(C(=O)NCC3CC3)nc2C(=O)OC(C)OC(=O)C(C)C)cc1OC` (stereo partly drawn) [Compound 103c, 1-(isobutyryloxy)ethyl 6-((cyclopropylmethyl)carbamoyl)-3-(5-methoxy-2-((4-(N—((((S)-5-oxopyrrolidin-2-yl)methoxy)carbonyl)carbamimidoyl)phenyl)carbamoyl)-4-vinylphenyl)picolinate] belongs “A (A = 0-1,000 ng/mL)”; to `C=Cc1cc(C(=O)Nc2ccc(C(=N)NC(=O)OC(C)COC(=O)CCCC[C@H]3SCC4NC(=O)NC43)cc2)c(-c2ccc(C(=O)NCC3CC3)nc2C(=O)OC(C)OC(=O)OC(C)C)cc1OC` (stereo partly drawn) [Compound 104b, 1-((isopropoxycarbonyl)oxy)ethyl 6-((cyclopropylmethyl)carbamoyl)-3-(5-methoxy-2-((4-(N-(((1-((5-((4R)-2-oxohexahydro-1H-thieno[3,4-d]imidazol-4-yl)pentanoyl)oxy)propan-2-yl)oxy)carbonyl)carbamimidoyl)phenyl)carbamoyl)-4-vinylphenyl)picolinate], “A (A = 0-1,000 ng/mL)”. The result for `C=Cc1cc(C(=O)Nc2ccc(C(=N)NC(=O)OCc3oc(=O)oc3C)cc2)c(-c2ccc(C(=O)NCC3CC3)nc2C(=O)OC(C)OC(=O)C(C)C)cc1OC` (stereo not shown) [Compound 117b, 1-(isobutyryloxy)ethyl 6-((cyclopropylmethyl)carbamoyl)-3-(5-methoxy-2-((4-(N-(((5-methyl-2-oxo-1,3-dioxol-4-yl)methoxy)carbonyl)carbamimidoyl)phenyl)carbamoyl)-4-vinylphenyl)picolinate] reads “B (B = 1,001-10,000 ng/mL)”; that for `C=Cc1cc(C(=O)Nc2ccc(C(=N)NC(=O)OCc3oc(=O)oc3C)cc2)c(-c2ccc(C(=O)NCC3CC3)nc2C(=O)OCOC(=O)[C@@H](N)C(C)C)cc1OC` [Compound 118c, (S)-((2-amino-3-methylbutanoyl)oxy)methyl 6-((cyclopropylmethyl)carbamoyl)-3-(5-methoxy-2-((4-(N-(((5-methyl-2-oxo-1,3-dioxol-4-yl)methoxy)carbonyl)carbamimidoyl)phenyl)carbamoyl)-4-vinylphenyl)picolinate], “A (A = 0-1,000 ng/mL)”.
